According to patent US20090142753A1, “Compositions and methods for detecting compounds to treat a neurological disorder” (Caritas St. Elizeth Medical Center of Boston, Inc., priority 2005, published 2009):

Key:
[1] = tested on: 0DJ-Luc control plasmid (+46 to +65 of the DJ-1 gene); assay: Luciferase activity in control cell lines expressing 0DJ-Luc; assay type: cell-based, human; details: SH-SY5Y 0DJ-Luc cells, 24 hours
Description: (§1) To develop a cell-based assay system where one can identify agents that transcriptionally activate DJ-1, a plasmid vector (−1000DJ-Luc) was made that expressed a luciferase reporter gene directed by the human DJ-1 promoter containing 1000 base pairs upstream and 65 base pairs downstream sequences (−1000 to +65) of the transcription initiation site (FIG. 1). A19 base pair sequence containing +46 to +65 of the DJ-1 gene was fused to the luciferase gene to generate the control plasmid (0DJLuc). A neomycin resistance gene was inserted into the vectors as a selection marker. Next, human dopaminergic SH-SY5Y neuroblastoma cells were transfected with either −1000DJLuc or 0DJLuc selected for stably transfected clones. A plasmid encoding β-galactosidase gene was co-transfected to serve as an internal control for luciferase expression.
To confirm the stable expression of the reporter genes and to evaluate these cells as devices for drug discovery, stably transfected SH-SY5Y cells were treated with increasing doses of H2O2. This agent has been reported to upregulate DJ-1. See for example Reference 21. Twenty-four hours after treatment, cells were harvested to analyze luciferase and β-galactosidase activities. […] Luciferase and β-galactosidase activities were then determined. […]
C. […] Luciferase and β-galactosidase activities were determined using assay kits following manufacturer's protocol (Promega).

human DJ-1 promoter [2] = assay: DJ-1 promoter luciferase reporter assay in SH-SY5Y cells stably expressing −1000DJ-Luc; assay type: cell-based; details: 24 hours; for DJ-1 promoter-driven luciferase activity normalized to β-galactosidase activity: SH-SY5Y cells stably expressing −1000DJ-Luc, increasing doses; for Luciferase expression directed by the human DJ-1 promoter, fold change relative to untreated: SH-SY5Y −1000DJ-Luc vs 0DJ-Luc, normalized to total protein content (FIG. 6)
Description: as §1
To confirm the stable expression of the reporter genes and to evaluate these cells as devices for drug discovery, stably transfected SH-SY5Y cells were treated with increasing doses of H2O2. This agent has been reported to upregulate DJ-1. See for example Reference 21. Twenty-four hours after treatment, cells were harvested to analyze luciferase and β-galactosidase activities. Toxicity induced by the higher dose H2O2 was corrected by reduced β-galactosidase activities. […] SH-SY5Y cells stably expressing −1000DJ-Luc and a plasmid encoding CMV-β-galactosidase were treated with the indicated amount of H2O2 for 24 hours. Luciferase and β-galactosidase activities were then determined. Because cellular toxicity increases with increasing H2O2 dosages, luciferase activity was normalized to β-galactosidase activity, with the value of untreated sample designated as 100. The values shown represent the average of 2 experiments carried out in triplicate. (P<0.05 by Anova). The Luciferase activity in control cell lines expressing 0DJ-Luc was not affected by H2O2. To further validate the cells as tools for compound screening, a rational approach to selecting candidate compounds that can transactivate DJ-1 gene based on the analysis of the human DJ-1 promoter was taken.
SH-SY5Y cells stably expressing −1000DJ-Luc were treated with increasing doses of TSA (FIG. 3A) or sodium butyrate (FIG. 3B) for 24 hours. Results were analyzed as described in FIG. 2. DJ-1 promoter-driven luciferase activity was then assayed.
A. Plasmids and Chemicals. DJ-1 promoter sequences from −1000 to +65 relative to the transcriptional initiation site was amplified from pDJ-1(1)luc by PCR with Xho I and Hind III sites using the following primers: DJ-1 F, 5′ […] (SEQ ID NO:); DJ-1 R, 5′ […] (SEQ ID NO:). The PCR product was then inserted into pGL3basic vector (Promega), between Xho I and Hind III sites to generate 1000DJ-Luc vector. For 0DJ-Luc, the sequences from +46 to +65 relative to the transcriptional initiation site were inserted between XhoI and Hind III sites instead. To facilitate selection, a neomycin resistant gene directed by the SV40 promoter with BamHI and Xho I linker was inserted between the BamHI and SalI sites of pGL3 basic, with the original SalI site abolished after ligation. pON260 encoding β-galactosidase gene was described previously. H2O2, Trichostatin A (TSA), and sodium butyrate were obtained from Sigma.
B. Cells and Transfection. The human neuroblastoma cell line SH-SY5Y was plated in 6 well dish at 70% confluency and co-transfected with 150 ng of pON260 and 25 fmol of −1000DJ-Luc or 0DJ-Luc per well with Transfectin reagent (Bio-Rad). 24 hours after transfection, cells were re-plated in 10 cm dishes and cultured in medium with 800 μg/ml of Geneticin (G418, Invitrogen). Three days later, cells were grown in medium containing 400 μg/ml of Geneticin. Surviving clones were cultured, and expanded, and subjected to analysis.
C. Luciferase and β-galactosidase Assays. Cells were treated with the indicated doses of H2O2, TSA or sodium butyrate for 24 hours before being lysed in reporter lysis buffer (Promega). […]

human DJ-1 promoter [3] = assay: DJ-1 luciferase assay in 96-well high throughput format; assay type: cell-based; details: 1000DJ-Luc SH-SY5Y cells, 96-well format, 5 μM, 24 hours, N=12
Method: FIG. 8 is a graph showing the results of a DJ-1 luciferase assay configured as a high throughput screen. Equal numbers of SH-SY5Y cells stably expressing the 1000DJ-Luc construct were plated in replicate (N=12) with 5 μM pergolide, bromocriptine or SAHA for 24 hours and then assayed for luciferase activity. The assay produced a Z′ value of 0.790 using SAHA as the positive and bromocriptine as the negative control.
The assay described above was carried out in a 96-well format. Twelve replicate samples of 1000DJ-Luc cells were each treated with pergolide or bromocriptine, which served as negative controls, or with SAHA, a compound known to increase DJ-1 expression. 5 μM of each compound was added to the cells in a 30 μl volume. Cells were lysed in 100 μl/well of passive lysis buffer, and 20 μl aliquots of the cell lysates were then used for a luciferase assay. Bromocriptine and pergolide are dopamine receptor agonists used for the treatment of motor symptoms in Parkinson's disease. […] In fact, levels of luciferase activity observed with these compounds were very similar to levels present in untreated control cells. […] A Z′ value was calculated using bromocriptine as the negative control. […] See “A Simple Statistical Parameter for Use in Evaluation and Validation of High Throughput Screening Assays” Zhang J H, Chung T D, Oldenburg K R, J Biomol Screen. 1999; 4(2):67-73.

DJ-1 protein [4] = assay: Western blot of endogenous DJ-1 protein in SH-SY5Y cells; assay type: cell-based, human; details: for Total endogenous DJ-1 protein levels: SH-SY5Y cells stably expressing −1000DJ-Luc, 24 hours, Western blot (FIG. 4); for DJ-1 protein levels: SH-SY5Y cells, TSA 0, 50, 100 ng/ml, sodium butyrate 0, 2.5, 5, 10 mM (FIG. 6C)
Method: SHSY5Y cells stably expressing −1000DJ-Luc were treated with TSA or sodium butyrate for 24 hours. Total proteins were then extracted and analyzed by SDS-PAGE. After transfer, the membrane was first probed with a mouse monoclonal anti-DJ-1 antibody (1:1000) to reveal DJ-1 expression (Top panel). The membrane was then stripped and re-probed with a goat polyclonal anti-actin (1:1000). Therefore, and without wishing to be bound to theory, it is believed that by activating an anti-oxidative and neuroprotective protein DJ-1, HDAC inhibitors may prevent neuronal cell death in Parkinson disease or other neurodegenerative diseases.
SHSY5Y cells stably expressing −1000DJ-Luc were treated with TSA or sodium butyrate for 24 hours. Total proteins were extracted and analyzed by SDS-PAGE. After transfer, the membrane was first probed with a mouse monoclonal anti-DJ-1 antibody (1:1000) to reveal DJ-1 expression (Top panel). The membrane was then striped and re-probed with a goat polyclonal anti-actin (1:1000).
(§2) SH-SY5Y cells (FIG. 6C), human primary neuronal cultures containing cortical neurons and glia (FIG. 6D), or mouse embryonic stem cells (FIG. 6D) were treated with increasing doses of TSA (0, 50, or 100 ng/ml) and sodium butyrate (0, 2.5, 5, or 10 mM). The cells were then lysed. The protein concentration of each sample was determined using a Protein DC assay (Bio-Rad). Equal amount of proteins (30-40 μg) were resolved by 4-20% Tris-glycine SDS-PAGE in each experiment. Proteins were transferred onto nitrocellulose membranes, and probed with antibodies against DJ-1 (Stressgen) or β-actin (Santa Cruz). DJ-1 protein was then visualized using chemiluminescent detection, ECL WESTERN BLOTTING DETECTION SYSTEM (Amersham, Piscataway, N.J.), according to the manufacturer's instructions.
Human SH-SY5Y cells, a primary neuronal culture containing dopaminergic neurons and glia, or mouse embryonic stem cells were treated with selected HDAC inhibitors for 24 hours. Cells were then lysed in RIPA-DOC buffer (50 mM Tris, pH 7.2; 150 mM NaCl; 1% Triton-X100, 1% deoxycholate and 0.1% SDS) with 1× fresh protease inhibitor cocktail. For analysis of DJ-1 protein levels in mouse brains, C57BL6 mice were injected intraperitoneally with sodium butyrate (1200 mg/kg) or vehicle (PBS) daily for 14 days. Mice were euthanized and the cortical and midbrain tissues were collected, and snap frozen in liquid nitrogen. Tissues were disrupted in RIPA-DOC buffer with 1× protease inhibitor using Dounce homogenizers. Protein concentration of each sample was determined using Protein DC assay (Bio-Rad). Equal amounts of proteins (30-40 μg) were resolved by 4-20% Tris-glycine SDS-PAGE in each experiment. […]

DJ-1 protein [5] = assay: Western blot of DJ-1 protein in human primary neuronal cultures; assay type: cell-based; details: human primary neuronal cultures containing cortical neurons and glia, increasing doses (FIG. 6D)
Method: as §2
(§3) Human SH-SY5Y cells, a primary neuronal culture containing dopaminergic neurons and glia, or mouse embryonic stem cells were treated with selected HDAC inhibitors for 24 hours. Cells were then lysed in RIPA-DOC buffer (50 mM Tris, pH 7.2; 150 mM NaCl; 1% Triton-X100, 1% deoxycholate and 0.1% SDS) with 1× fresh protease inhibitor cocktail. For analysis of DJ-1 protein levels in mouse brains, C57BL6 mice were injected intraperitoneally with sodium butyrate (1200 mg/kg) or vehicle (PBS) daily for 14 days. […] Protein concentration of each sample was determined using Protein DC assay (Bio-Rad). […]

DJ-1 protein [6] = assay: Western blot of DJ-1 protein in mouse embryonic stem cells; assay type: cell-based; details: increasing doses (FIG. 6D)
Method: as §2, §3

DJ-1 mRNA = DJ-1 mRNA by quantitative real-time PCR in SH-SY5Y cells; assay type: cell-based, human; details: 5 mM, 1-12 hours after treatment
Method: SH-SY5Y cells were treated with 5 mM of sodium butyrate. Cells were then harvested for mRNA one, two, four, eight, and twelve hours after treatment. DJ-1 mRNA levels were quantitated using real-time PCR. DJ-1 mRNA levels were normalized to internal control β-actin mRNA levels.
Total RNA was extracted from the cells treated with sodium butyrate at various time points using Trizol reagent (Invitrogen). The total RNA was then purified with the RNAeasy kit (Qiagen). The quality of the RNA was confirmed using agarose (1%) gel electrophoresis. RNA (1 ng) from each sample was then amplified using Roche LightCycler and Qiagen QuantiTect™ SYBR Green RT-PCR kit according to the manufacturer's instructions. This protocol included: reverse transcription at 50° for 20 minutes, initial activation of Hotstar Taq polymerase at 95° C. for 15 minutes, then 40 cycles of 3-step cycling, including denaturation at 94° C. for 15 seconds; annealing at 58° C. for 20 seconds; extension at 72° C. for 20 sec). A fluorescence detection step was carried out at the end of each cycle. Melting curve analysis (0.1° C. per sec ramping rate, 60-95° C.) was performed with a continuous fluorescence measurement following the 40th cycle. β-actin mRNA was amplified in parallel as an internal control.

DJ-1 protein [7] = assay: DJ-1 protein levels in mouse brain in vivo (immunoblot); details: C57BL6 mice, 1200 mg/kg intraperitoneally daily for fourteen days, cortical and midbrain tissues
Method: For analysis of DJ-1 protein levels in mouse brains, C57BL6 mice were injected intraperitoneally with vehicle (PBS) or sodium butyrate (1200 mg/kg) daily for fourteen days. Mice were euthanized and the cortical and midbrain tissues were collected, and snap frozen in liquid nitrogen. Tissues were disrupted in RIPA-DOC buffer with 1× protease inhibitor using a Dounce homogenizer. The protein concentration of each sample was determined using a Protein DC assay (Bio-Rad). Equal amounts of proteins (30-40 μg) were resolved by 4-20% Tris-glycine SDS-PAGE in each experiment. Proteins were transferred onto nitrocellulose membranes, and probed with antibodies against DJ-1 (Stressgen) or β-actin (Santa Cruz).
as §3

Compound | Luciferase activity in control cell lines expressing 0DJ-Luc [1] | DJ-1 promoter-driven luciferase activity normalized to β-galactosidase activity (human DJ-1 promoter [2]) | Luciferase expression directed by the human DJ-1 promoter, fold change relative to untreated (human DJ-1 promoter [2]) | Luciferase activity (human DJ-1 promoter [3]) | Total endogenous DJ-1 protein levels (DJ-1 protein [4]) | DJ-1 protein levels (DJ-1 protein [4]) | DJ-1 protein levels (DJ-1 protein [5]) | DJ-1 protein levels (DJ-1 protein [6]) | DJ-1 mRNA levels normalized to β-actin mRNA (DJ-1 mRNA) | DJ-1 protein levels in mouse brain (DJ-1 protein [7])
OO [H2O2] | not affected | activated the human DJ-1 promoter in a dose dependent manner |  |  |  |  |  |  |  | 
O=C(CCCCCCC(=O)Nc1ccccc1)NO [SAHA, suberoylanilide hydroxamic acid] |  |  | specifically activate luciferase expression | substantial levels of luciferase activity |  |  |  |  |  | 
CC(/C=C/C(=O)NO)=C\[C@@H](C)C(=O)c1ccc(N(C)C)cc1 [TSA, Trichostatin A] |  | significantly activated the DJ-1 promoter | specifically activate luciferase expression |  | increased markedly | increased DJ-1 protein levels in a dose dependent fashion | increased DJ-1 protein levels in a dose dependent fashion | increased DJ-1 protein levels in a dose dependent fashion |  | 
CCCN1C[C@H](CSC)C[C@@H]2c3cccc4[nH]cc(c34)C[C@H]21 [pergolide] |  |  |  | little luciferase activity |  |  |  |  |  | 
CCCC(=O)[O-].[Na+] [sodium butyrate] |  | significantly activated the DJ-1 promoter | specifically activate luciferase expression |  | increased markedly | increased DJ-1 protein levels in a dose dependent fashion | increased DJ-1 protein levels in a dose dependent fashion | increased DJ-1 protein levels in a dose dependent fashion | transient increase in DJ-1 mRNA levels | increased DJ-1 protein levels in mouse brain in vivo
